Read-outs that look alike come from different tables or passages of the source. No end group written: not given here.
Assays:
dengue virus = settings: for IC50: dengue virus incubated with peptide 37°C 1 hour, Vero cells, 2 days, triplicate
Experimental: The inoculated cells were cultured overnight.
The SP-049 peptide was prepared such that the maximum concentration was 125 nM and the minimum concentration was 0.98 nM (concentrations: 125 nM; 62.5 nM; 31.25 nM; 15.62 nM; 7.81 nM; 3.91 nM; 1.95 nM; and 0.98 nM).
The present inventors calculated the inhibition rate (% inhibition) of each well based on the formula of the standard curve by converting the average Ct value of wells infected with dengue virus without peptide treatment in the same plate into an infection rate of 100%, and using this to create a standard curve. Each value was obtained through three repeated experiments (in triplicate), and IC50 values were derived using GraphPad Prism 5 software.

HCV = settings: Table 1 in Cheng, Guofeng, et al.; cited from earlier work

Sequence	IC50 (SARS-CoV-2 virus) [µM]	% Inhibition (dengue virus; Conc. 7.81 nM) [%]	% Inhibition (dengue virus; Conc. 15.63 nM) [%]	% Inhibition (dengue virus; Conc. 31.25 nM) [%]	% Inhibition (dengue virus; Conc. 62.50 nM) [%]	% Inhibition (dengue virus; Conc. 125.00 nM) [%]	IC50 (dengue virus) [µM]	also measured
DFWSKLVYFFAEIIRFLS [SP-143, DFWSKLVYFFAEIIRFLS]	19.5	49.26	53.07	79.28	94.07	99.42	0.0161	% Inhibition (dengue virus; Conc. 0.98 nM): 59.95%; % Inhibition (dengue virus; Conc. 1.95 nM): -28.80%; % Inhibition (dengue virus; Conc. 3.91 nM): 42.98%
DKIVLFILSILEKIYNLL [SP-171, DKIVLFILSILEKIYNLL]	18.7	–	–	–	–	–	–	–
DVTRLLELILDVLAYIIS [SP-151, DVTRLLELILDVLAYIIS]	5	–	–	–	–	–	–	–
DWLRIIWDWVCSVVSDFK [SEQ ID NO: 301]	–	–	–	–	–	–	–	antiviral activity compared among C5A analogs derived from HCV 1a, 1b, 2a, 3a, 4a, 5a and 6a (HCV): higher antiviral activity
ESLKNFWESLWKFFTHFF [SP-001, ESLKNFWESLWKFFTHFF]	–	-0.47	45.60	57.96	78.78	82.51	0.0226	% Inhibition (dengue virus; Conc. 250.00 nM): 100.00%; % Inhibition (dengue virus; Conc. 500.00 nM): 100.00%; % Inhibition (dengue virus; Conc. 1000.00 nM): 100.00%
FSFWVWLDNIIDLVKKYI [SP-114, FSFWVWLDNIIDLVKKYI]	19.5	–	–	–	–	–	–	–
FTFWTWLEAILDLIKKHI [SP-116, FTFWTWLEAILDLIKKHI]	4.1	–	–	–	–	–	–	–
FTNFHRQLFCWIDKWIDL [SP-191, FTNFHRQLFCWIDKWIDL]	–	–	–	–	–	–	0.776	% Inhibition (dengue virus; Conc. 39.06 nM): -20.14%; % Inhibition (dengue virus; Conc. 78.13 nM): -14.44%; % Inhibition (dengue virus; Conc. 156.25 nM): 5.32%; % Inhibition (dengue virus; Conc. 312.50 nM): 46.78%; % Inhibition (dengue virus; Conc. 625.00 nM): 29.53%; % Inhibition (dengue virus; Conc. 1250.00 nM): 64.10%; % Inhibition (dengue virus; Conc. 2500.00 nM): 98.50%; % Inhibition (dengue virus; Conc. 5000.00 nM): 99.99%
ILDFFVGFIDWLVRYLNK [SP-046, ILDFFVGFIDWLVRYLNK]	7.9	15.33	–	100.00	100.00	100.00	0.0177	% Inhibition (dengue virus; Conc. 0.98 nM): 3.30%; % Inhibition (dengue virus; Conc. 1.95 nM): 3.30%; % Inhibition (dengue virus; Conc. 3.91 nM): 5.60%; % Inhibition (dengue virus; Conc. 15.62 nM): 36.10%
ILVRWLSHFFEYLDRFYT [SP-221, ILVRWLSHFFEYLDRFYT]	19.5	–	–	–	–	–	–	–
QSFLDIVWSIIDIFKEFC [SP-004, QSFLDIVWSIIDIFKEFC]	8.9	-1.96	6.56	9.23	22.45	34.78	0.207	% Inhibition (dengue virus; Conc. 250.00 nM): 61.21%; % Inhibition (dengue virus; Conc. 500.00 nM): 99.95%; % Inhibition (dengue virus; Conc. 1000.00 nM): 100.00%
SFLDIVWSIIDIFKEFCK [SP-003, SFLDIVWSIIDIFKEFCK]	10.3	-6.03	38.56	71.23	63.98	99.91	0.022	% Inhibition (dengue virus; Conc. 250.00 nM): 100.00%; % Inhibition (dengue virus; Conc. 500.00 nM): 100.00%; % Inhibition (dengue virus; Conc. 1000.00 nM): 100.00%
SWKEIVNLLYELLASLIR [SP-101, SWKEIVNLLYELLASLIR]	11.6	-14.11	20.94	0.96	23.20	65.09	0.1	% Inhibition (dengue virus; Conc. 250.00 nM): 97.07%; % Inhibition (dengue virus; Conc. 500.00 nM): 100.00%; % Inhibition (dengue virus; Conc. 1000.00 nM): 100.00%
WDCVQDIWEYIFRTAMKI [SP-185, WDCVQDIWEYIFRTAMKI]	–	–	–	–	–	–	0.519	% Inhibition (dengue virus; Conc. 39.06 nM): -7.43%; % Inhibition (dengue virus; Conc. 78.13 nM): 11.76%; % Inhibition (dengue virus; Conc. 156.25 nM): 36.60%; % Inhibition (dengue virus; Conc. 312.50 nM): 33.04%; % Inhibition (dengue virus; Conc. 625.00 nM): 51.77%; % Inhibition (dengue virus; Conc. 1250.00 nM): 89.53%; % Inhibition (dengue virus; Conc. 2500.00 nM): 100.00%; % Inhibition (dengue virus; Conc. 5000.00 nM): 100.00%
WSEILREFLNLISLIWSR [SP-110, WSEILREFLNLISLIWSR]	19.5	–	–	–	–	–	–	–
YNLFDLLIYIWNKIFDDY [SP-049, YNLFDLLIYIWNKIFDDY]	1.8	93.03	100.00	100.00	100.00	–	0.00385	% Inhibition (dengue virus; Conc. 0.49 nM): 24.20%; % Inhibition (dengue virus; Conc. 0.98 nM): 20.16%; % Inhibition (dengue virus; Conc. 1.95 nM): 39.14%; % Inhibition (dengue virus; Conc. 3.91 nM): 45.30%

Source: patent publication EP4621409A1, “NOVEL ANTIVIRAL PEPTIDE” (Daehannupharm Co., Ltd., priority 2022, dated 2024)
